In patent US9113629B2, “4-amino-6-(4-substituted-phenyl)-picolinates and 6-amino-2-(4-substituted-phenyl)-pyrimidine-4-carboxylates and their use as herbicides” (DOW AGROSCIENCES LLC, priority 2013, dated 2015):
Read-outs that look alike come from different tables or passages of the source.

Key:
[1] = system: Key Broadleaf Weed and Crop Species; assay: Post-emergent Test II herbicidal activity (Table 5); assay type: in vivo; conditions: post-emergence, 336 h, post-emergent, 14 days after application; for pest or weed control at 70 g/ha: 70 g ai/ha; for pest or weed control at 140 g/ha: 140 g ai/ha
How it was run: (§1)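 Compounds, dissolved in 97:3 acetone/DMSO and diluted into an aqueous carrier containing crop oil concentrate and Triton X-155, are applied over the top of young plants at 187 L/ha. Injury is scored visually at 14 d, 0% meaning no effect and 100% complete kill.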

[2] = system: Key Grass and Sedge Weeds as well as Grass Crops; assay: Post-emergent Test II herbicidal activity (Table 6); assay type: in vivo; conditions: post-emergence, 336 h; for pest or weed control at 70 g/ha: application rate 70 g ai/ha; for pest or weed control at 140 g/ha: application rate 140 g ai/ha
How it was run: as §1

[3] = ABUTH: velvetleaf (Abutilon theophrasti), read-out: Visual Growth Reduction (%) 14 Days After Application ABUTH
[4] = AMARE: redroot pigweed (Amaranthus retroflexus), read-out: Visual Growth Reduction (%) 14 Days After Application AMARE
[5] = BRSNN: oilseed-rape, canola (Brassica napus), read-out: Visual Growth Reduction (%) 14 Days After Application BRSNN
[6] = CHEAL: lambsquarters (Chenopodium album), read-out: Visual Growth Reduction (%) 14 Days After Application CHEAL
[7] = EPHHL: wild poinsettia (Euphorbia heterophylla), read-out: Visual Growth Reduction (%) 14 Days After Application EPHHL
[8] = HELAN: sunflower (Helianthus annuus), read-out: Visual Growth Reduction (%) 14 Days After Application HELAN
[9] = VIOTR: wild pansy (Viola tricolor), read-out: Visual Growth Reduction (%) 14 Days After Application VIOTR
[10] = Triticum aestivum, TRZSS (wheat), read-out: Visual Growth Reduction (%) 14 Days After Application, TRZSS
[11] = CYPES: yellow nutsedge (Cyperus esculentus), read-out: Visual Growth Reduction (%) 14 Days After Application, CYPES
[12] = DIGSA: crabgrass (Digitaria sanguinalis), read-out: Visual Growth Reduction (%) 14 Days After Application, DIGSA
[13] = ECHCG: barnyardgrass (Echinochloa crus-galli), read-out: Visual Growth Reduction (%) 14 Days After Application, ECHCG
[14] = ORYSA: rice (Oryza sativa), read-out: Visual Growth Reduction (%) 14 Days After Application, ORYSA
[15] = SETFA: giant foxtail (Setaria faberi), read-out: Visual Growth Reduction (%) 14 Days After Application, SETFA
[16] = SORVU: grain sorghum (Sorghum vulgare), read-out: Visual Growth Reduction (%) 14 Days After Application, SORVU
[17] = ZEAMX: maize, corn (Zea mays), read-out: Visual Growth Reduction (%) 14 Days After Application, ZEAMX

| Structure (SMILES) | pest or weed control at 70 g/ha [1, 3] | pest or weed control at 140 g/ha [1, 3] | pest or weed control at 70 g/ha [1, 4] | pest or weed control at 140 g/ha [1, 4] | pest or weed control at 70 g/ha [1, 5] | pest or weed control at 140 g/ha [1, 5] | pest or weed control at 70 g/ha [1, 6] | pest or weed control at 140 g/ha [1, 6] | pest or weed control at 70 g/ha [1, 7] | pest or weed control at 140 g/ha [1, 7] | pest or weed control at 70 g/ha [1, 8] | pest or weed control at 140 g/ha [1, 8] | pest or weed control at 70 g/ha [1, 9] | pest or weed control at 140 g/ha [1, 9] | pest or weed control at 70 g/ha [2, 10] | pest or weed control at 140 g/ha [2, 10] | pest or weed control at 70 g/ha [2, 11] | pest or weed control at 140 g/ha [2, 11] | pest or weed control at 70 g/ha [2, 12] | pest or weed control at 140 g/ha [2, 12] | other results |
| --- | --- | --- | --- | --- | --- | --- | --- | --- | --- | --- | --- | --- | --- | --- | --- | --- | --- | --- | --- | --- | --- |
| C=Cc1c(C(=O)OC)nc(-c2ccc(Br)cc2)c(F)c1N [Compound 57, methyl 4-amino-6-(4-bromophenyl)-5-fluoro-3-vinylpicolinate] | 85 to 94% | 85 to 94% | 85 to 94% | 95 to 100% | 60 to 74% | 75 to 84% | 85 to 94% | 85 to 94% | 85 to 94% | 85 to 94% | 85 to 94% | 85 to 94% | 0 to 29% | 0 to 29% | 0 to 29% | 0 to 29% | 95 to 100% | 95 to 100% | 0 to 29% | 0 to 29% | pest or weed control at 70 g/ha [2, 13]: 0 to 29%; pest or weed control at 140 g/ha [2, 13]: 0 to 29%; pest or weed control at 70 g/ha [2, 14]: 0 to 29%; pest or weed control at 140 g/ha [2, 14]: 0 to 29%; pest or weed control at 70 g/ha [2, 15]: 0 to 29%; pest or weed control at 140 g/ha [2, 15]: 0 to 29%; pest or weed control at 70 g/ha [2, 16]: 75 to 84%; pest or weed control at 140 g/ha [2, 16]: 95 to 100%; pest or weed control at 70 g/ha [2, 17]: 0 to 29%; pest or weed control at 140 g/ha [2, 17]: 0 to 29% |
| Cc1c(-c2ccc(OC(F)F)cc2)nc(C(=O)O)c(Cl)c1N [Compound 94, 4-Amino-3-chloro-6-(4-(difluoromethoxy)phenyl)-5-methylpicolinic acid] | 0 to 29% | 0 to 29% | 0 to 29% | 45 to 59% | 0 to 29% | 0 to 29% | 85 to 94% | 85 to 94% | 0 to 29% | 0 to 29% | 85 to 94% | 85 to 94% | 0 to 29% | 0 to 29% | 0 to 29% | 0 to 29% | 0 to 29% | 0 to 29% | 0 to 29% | 0 to 29% | pest or weed control at 70 g/ha [2, 13]: 0 to 29%; pest or weed control at 140 g/ha [2, 13]: 0 to 29%; pest or weed control at 70 g/ha [2, 14]: 0 to 29%; pest or weed control at 140 g/ha [2, 14]: 0 to 29%; pest or weed control at 70 g/ha [2, 15]: 0 to 29%; pest or weed control at 140 g/ha [2, 15]: 0 to 29%; pest or weed control at 70 g/ha [2, 16]: 0 to 29%; pest or weed control at 140 g/ha [2, 16]: 0 to 29%; pest or weed control at 70 g/ha [2, 17]: 0 to 29%; pest or weed control at 140 g/ha [2, 17]: 0 to 29% |
| COC(=O)c1nc(-c2ccc(Br)cc2)c(Cl)c(N)c1Cl [Compound 47] | 95 to 100% | 95 to 100% | 95 to 100% | 95 to 100% | 95 to 100% | 95 to 100% | 95 to 100% | 95 to 100% | 85 to 94% | 95 to 100% | 95 to 100% | 95 to 100% | 0 to 29% | 0 to 29% | 45 to 59% | 45 to 59% | 85 to 94% | 95 to 100% | 75 to 84% | 75 to 84% | pest or weed control at 70 g/ha [2, 13]: 85 to 94%; pest or weed control at 140 g/ha [2, 13]: 85 to 94%; pest or weed control at 70 g/ha [2, 14]: 0 to 29%; pest or weed control at 140 g/ha [2, 14]: 0 to 29%; pest or weed control at 70 g/ha [2, 15]: 85 to 94%; pest or weed control at 140 g/ha [2, 15]: 95 to 100%; pest or weed control at 70 g/ha [2, 16]: 85 to 94%; pest or weed control at 140 g/ha [2, 16]: 85 to 94%; pest or weed control at 70 g/ha [2, 17]: 85 to 94%; pest or weed control at 140 g/ha [2, 17]: 85 to 94% |
